Source: patent publication US12502362B2, “Inhibitors of nucleotidyltransferase superfamily enzymes as antibiotics” (priority 2017, dated 2025)
Like-named read-outs stand apart in the source and are kept apart here.

Experiments:
[1] = tested on: S. aureus ATCC strains and MRSA; format: cell-based, Staphylococcus aureus
[2] = tested on: Staphylococcus epidermidis; format: cell-based
Procedure: (§1) It was also tested whether compounds #63 and #285 can inhibit other coagulase-negative Staphylococcus (CNS) including S. epidermidis, S. hominis, etc. […].

Staphylococcus hominis = format: cell-based
Procedure: as §1

[3] = tested on: Coagulase negative Staphylococcus; assay: Antibiotic susceptibility of coagulase negative Staphylococcus strains; format: cell-based
[4] = Se1 (Staphylococcus epidermidis)
[5] = Se2 (Staphylococcus epidermidis)
[6] = Se3 (Staphylococcus epidermidis)
[7] = Se4 (Staphylococcus epidermidis)
[8] = Se5 (Staphylococcus epidermidis)
[9] = CNS1 (Coagulase negative Staphylococcus)
[10] = CNS2 (Coagulase negative Staphylococcus)

SMILES: CC(=O)NC[C@H]1CN(c2ccc(N3CCOCC3)c(F)c2)C(=O)O1 [LZD, linezolid]
- Antibiotic susceptibility ([1]; S. aureus ATCC 25923): S
- Antibiotic susceptibility ([1]; S. aureus ATCC 29213): S
- Antibiotic susceptibility ([1]; S. aureus ATCC BAA 976): S
- Antibiotic susceptibility ([1]; S. aureus ATCC BAA 977): S
- Antibiotic susceptibility ([1]; S. aureus ATCC BAA 1026): S
- Antibiotic susceptibility ([1]; Sa1 (MRSA)): S
- Antibiotic susceptibility ([1]; Sa2 (MRSA)): S
- Antibiotic susceptibility ([1]; Sa3 (MRSA)): S
- Antibiotic susceptibility ([1]; Sa5 (MRSA)): S
- Antibiotic susceptibility ([1]; Sa6 (MRSA)): S
- Antibiotic susceptibility ([1]; Sa7 (MRSA)): S
- Antibiotic susceptibility ([1]; Sa8 (MRSA)): S
- Antibiotic susceptibility ([1]; Sa9 (MRSA)): S
- Antibiotic susceptibility ([1]; Sa10 (MRSA)): S
- Antibiotic susceptibility ([1]; Sa11 (MRSA)): S
- Antibiotic susceptibility ([1]; Sa12 (MRSA)): S
- Antibiotic susceptibility ([1]; Sa14 (MRSA)): S
- Antibiotic susceptibility ([1]; Sa15 (MRSA)): S
- Antibiotic susceptibility ([1]; Sa16 (MRSA)): S
- Antibiotic susceptibility ([1]; Sa17 (MRSA)): S
- Antibiotic susceptibility ([1]; Sa18 (MRSA)): S
- Antibiotic susceptibility ([1]; Sa19 (MRSA)): S
- Antibiotic susceptibility ([1]; Sa20 (MRSA)): S
- Antibiotic susceptibility ([1]; Sa21 (MRSA)): S
- Antibiotic susceptibility ([1]; Sa22 (MRSA)): S
- Antibiotic susceptibility ([1]; Sa23 (MRSA)): S
- Antibiotic susceptibility [2, 4]: S
- Antibiotic susceptibility [2, 5]: S
- Antibiotic susceptibility [2, 6]: S
- Antibiotic susceptibility [2, 7]: S
- Antibiotic susceptibility [2, 8]: S
- Antibiotic susceptibility (Staphylococcus hominis; Sh1 (Staphylococcus hominis)): S
- Antibiotic susceptibility (Staphylococcus hominis; Sh2 (Staphylococcus hominis)): S
- Antibiotic susceptibility (Staphylococcus hominis; Sh3 (Staphylococcus hominis)): S
- Antibiotic susceptibility [3, 9]: S
- Antibiotic susceptibility [3, 10]: S

SMILES: COc1c(N2C[C@@H]3CCCN[C@@H]3C2)c(F)cc2c(=O)c(C(=O)O)cn(C3CC3)c12 [MXF, moxifloxacin]
- Antibiotic susceptibility ([1]; S. aureus ATCC 25923): S
- Antibiotic susceptibility ([1]; S. aureus ATCC 29213): S
- Antibiotic susceptibility ([1]; S. aureus ATCC BAA 976): S
- Antibiotic susceptibility ([1]; S. aureus ATCC BAA 977): S
- Antibiotic susceptibility ([1]; S. aureus ATCC BAA 1026): I
- Antibiotic susceptibility ([1]; Sa1 (MRSA)): R
- Antibiotic susceptibility ([1]; Sa2 (MRSA)): I
- Antibiotic susceptibility ([1]; Sa3 (MRSA)): I
- Antibiotic susceptibility ([1]; Sa5 (MRSA)): R
- Antibiotic susceptibility ([1]; Sa6 (MRSA)): R
- Antibiotic susceptibility ([1]; Sa7 (MRSA)): S
- Antibiotic susceptibility ([1]; Sa8 (MRSA)): R
- Antibiotic susceptibility ([1]; Sa9 (MRSA)): R
- Antibiotic susceptibility ([1]; Sa10 (MRSA)): R
- Antibiotic susceptibility ([1]; Sa11 (MRSA)): R
- Antibiotic susceptibility ([1]; Sa12 (MRSA)): I
- Antibiotic susceptibility ([1]; Sa14 (MRSA)): I
- Antibiotic susceptibility ([1]; Sa15 (MRSA)): R
- Antibiotic susceptibility ([1]; Sa16 (MRSA)): I
- Antibiotic susceptibility ([1]; Sa17 (MRSA)): R
- Antibiotic susceptibility ([1]; Sa18 (MRSA)): I
- Antibiotic susceptibility ([1]; Sa19 (MRSA)): S
- Antibiotic susceptibility ([1]; Sa20 (MRSA)): I
- Antibiotic susceptibility ([1]; Sa21 (MRSA)): S
- Antibiotic susceptibility ([1]; Sa22 (MRSA)): S
- Antibiotic susceptibility ([1]; Sa23 (MRSA)): S
- Antibiotic susceptibility [2, 4]: R
- Antibiotic susceptibility [2, 5]: S
- Antibiotic susceptibility [2, 6]: R
- Antibiotic susceptibility [2, 7]: R
- Antibiotic susceptibility [2, 8]: R
- Antibiotic susceptibility (Staphylococcus hominis; Sh1 (Staphylococcus hominis)): R
- Antibiotic susceptibility (Staphylococcus hominis; Sh2 (Staphylococcus hominis)): S
- Antibiotic susceptibility (Staphylococcus hominis; Sh3 (Staphylococcus hominis)): S
- Antibiotic susceptibility [3, 9]: S
- Antibiotic susceptibility [3, 10]: R

SMILES: Cc1onc(-c2ccccc2)c1C(=O)N[C@@H]1C(=O)N2[C@@H]1SC(C)(C)[C@@H]2C(=O)O [OXA, Oxacillin]
- Antibiotic susceptibility ([1]; S. aureus ATCC 25923): S
- Antibiotic susceptibility ([1]; S. aureus ATCC 29213): S
- Antibiotic susceptibility ([1]; S. aureus ATCC BAA 976): R
- Antibiotic susceptibility ([1]; S. aureus ATCC BAA 977): S
- Antibiotic susceptibility ([1]; S. aureus ATCC BAA 1026): R
- Antibiotic susceptibility ([1]; Sa1 (MRSA)): R
- Antibiotic susceptibility ([1]; Sa2 (MRSA)): R
- Antibiotic susceptibility ([1]; Sa3 (MRSA)): R
- Antibiotic susceptibility ([1]; Sa5 (MRSA)): R
- Antibiotic susceptibility ([1]; Sa6 (MRSA)): R
- Antibiotic susceptibility ([1]; Sa7 (MRSA)): R
- Antibiotic susceptibility ([1]; Sa8 (MRSA)): R
- Antibiotic susceptibility ([1]; Sa9 (MRSA)): R
- Antibiotic susceptibility ([1]; Sa10 (MRSA)): R
- Antibiotic susceptibility ([1]; Sa11 (MRSA)): R
- Antibiotic susceptibility ([1]; Sa12 (MRSA)): R
- Antibiotic susceptibility ([1]; Sa14 (MRSA)): R
- Antibiotic susceptibility ([1]; Sa15 (MRSA)): R
- Antibiotic susceptibility ([1]; Sa16 (MRSA)): R
- Antibiotic susceptibility ([1]; Sa17 (MRSA)): R
- Antibiotic susceptibility ([1]; Sa18 (MRSA)): R
- Antibiotic susceptibility ([1]; Sa19 (MRSA)): R
- Antibiotic susceptibility ([1]; Sa20 (MRSA)): R
- Antibiotic susceptibility ([1]; Sa21 (MRSA)): R
- Antibiotic susceptibility ([1]; Sa22 (MRSA)): R
- Antibiotic susceptibility ([1]; Sa23 (MRSA)): R
- Antibiotic susceptibility [2, 4]: R
- Antibiotic susceptibility [2, 5]: R
- Antibiotic susceptibility [2, 6]: R
- Antibiotic susceptibility [2, 7]: R
- Antibiotic susceptibility [2, 8]: R
- Antibiotic susceptibility (Staphylococcus hominis; Sh1 (Staphylococcus hominis)): R
- Antibiotic susceptibility (Staphylococcus hominis; Sh2 (Staphylococcus hominis)): R
- Antibiotic susceptibility (Staphylococcus hominis; Sh3 (Staphylococcus hominis)): R
- Antibiotic susceptibility [3, 9]: R
- Antibiotic susceptibility [3, 10]: R

SMILES: CO[C@H]1/C=C/O[C@@]2(C)Oc3c(C)c(O)c4c(O)c(c(/C=N/N5CCN(C)CC5)c(O)c4c3C2=O)NC(=O)/C(C)=C\C=C\[C@H](C)[C@H](O)[C@@H](C)[C@@H](O)[C@@H](C)[C@H](OC(C)=O)[C@@H]1C [RIF, Rifampin]
- Antibiotic susceptibility ([1]; S. aureus ATCC 25923): S
- Antibiotic susceptibility ([1]; S. aureus ATCC 29213): S
- Antibiotic susceptibility ([1]; S. aureus ATCC BAA 976): S
- Antibiotic susceptibility ([1]; S. aureus ATCC BAA 977): S
- Antibiotic susceptibility ([1]; S. aureus ATCC BAA 1026): S
- Antibiotic susceptibility ([1]; Sa1 (MRSA)): S
- Antibiotic susceptibility ([1]; Sa2 (MRSA)): S
- Antibiotic susceptibility ([1]; Sa3 (MRSA)): S
- Antibiotic susceptibility ([1]; Sa6 (MRSA)): S
- Antibiotic susceptibility ([1]; Sa7 (MRSA)): S
- Antibiotic susceptibility ([1]; Sa9 (MRSA)): S
- Antibiotic susceptibility ([1]; Sa11 (MRSA)): S
- Antibiotic susceptibility ([1]; Sa12 (MRSA)): S
- Antibiotic susceptibility ([1]; Sa14 (MRSA)): S
- Antibiotic susceptibility ([1]; Sa15 (MRSA)): R
- Antibiotic susceptibility ([1]; Sa16 (MRSA)): S
- Antibiotic susceptibility ([1]; Sa17 (MRSA)): S
- Antibiotic susceptibility ([1]; Sa18 (MRSA)): S
- Antibiotic susceptibility ([1]; Sa19 (MRSA)): S
- Antibiotic susceptibility ([1]; Sa20 (MRSA)): S
- Antibiotic susceptibility ([1]; Sa21 (MRSA)): S
- Antibiotic susceptibility ([1]; Sa22 (MRSA)): S
- Antibiotic susceptibility ([1]; Sa23 (MRSA)): S
- MRSA strains resistant ([1]; number of resistant strains out of 21 MRSA strains): 1/21
- Antibiotic susceptibility [2]: S
- Antibiotic susceptibility (Staphylococcus hominis): S
- Antibiotic susceptibility [3, 9]: S
- Antibiotic susceptibility [3, 10]: S
